Test results taken from BigSolDB 2.1.

C/C=C/C=C/C(=O)O
solubility (mole fraction)
Details	285.15 K	289.15 K	293.15 K	298.15 K	303.15 K	308.15 K	312.65 K	318.15 K	323.15 K
in MTBE	0.0403	0.0439	0.0512	0.0577	0.0693	0.0785	0.093	0.109	0.121
in acetone	0.0476	0.0528	0.0613	0.0701	0.0871	0.0968	0.115	0.14	0.156
in acetonitrile	0.00625	0.00746	0.0098	0.0112	0.0149	0.0172	0.0196	0.0248	0.0306
in ethanol	0.0442	0.0488	0.0572	0.0643	0.0747	0.0872	0.101	0.121	0.143
in ethyl acetate	0.0266	0.0314	0.0357	0.0452	0.0542	0.0626	0.0713	0.0862	0.102
in isopropanol	0.0383	0.0444	0.053	0.0613	0.0684	0.0753	0.086	0.0965	0.103
in methanol	0.0328	0.0392	0.0457	0.0553	0.0643	0.0749	0.083	0.0934	0.106
in n-butanol	0.0619	0.0738	0.0844	0.0973	0.108	0.121	0.135	0.154	0.173
